Reference: article PMC7407834, “Development of an LDL Receptor-Targeted Peptide Susceptible to Facilitate the Brain Access of Diagnostic or Therapeutic Agents” (Biology, 2020)

What was measured:
[1] = test system: HUVEC, HepaRG, ACBRI376 and 1321N1 cells; assay: Endocytosis of rhodamine-coupled peptides, fluorescence microscopy (RRFL); assay type: cell-based, human; conditions: all studied cell models, p < 0.001 in HepaRG, p < 0.05 in HUVEC
Method: Cells were seeded onto coverslips coated with collagen (0.2 mg/mL, Sigma-Aldrich, Overijse, Belgium) at a density of 8 × 10^5 cells/well and grown for 3 days.
Cells were incubated for 2 h at 37 °C in the dark with LRPep1-rho or LRPep2-rho (peptides coupled to rhodamine, 200 µM in culture medium for HepaRG and HUVEC, 25 µM for ACBRI376 and 1321N1); the negative control was incubated with culture medium. The use of the rhodamine as a fluorescent probe was based on our previous experience with labeled peptides. Cells were rinsed two times with PBS (per liter: 8 g NaCl, 0.2 g KCl, 2.31 g Na2HPO4 × 12 H2O, 0.2 g KH2PO4, pH 7.4). […]
Fluorescence was observed using a Leica DM2000 microscope equipped with a light source EL 6000 and a DFC 425C camera (Leica Microsystems, Groot Bijgaarden, Belgium).
Figure 4 Endocytosis of the peptides LRPep1-rho and LRPep2-rho (stained in red) in (A) HUVEC and HepaRG cells and (B) ACBRI376 and 1321N1 cells. […] (C–F) The endocytosis of peptides, as well as the expression of LDLR, was semi-quantitatively evaluated by the measurement of fluorescent labeling using the ImageJ software and was normalized to the number of cells and to the background, giving the relative ratio of fluorescent labeling (RRFL); *: p < 0.05, **: p < 0.001. […]

ACBRI376 cells = assay: Colocalization of LRPep2 with caveolae and lysosomes, ACBRI376; assay type: cell-based, human
Method: (§1) Cells were first incubated with LRPep2-rho, as described above (cf. 2.4. Evaluation of the endocytosis potential of peptides LRPep1 and LRPep2), before being permeabilized with methanol. Then, cells were blocked with PBS supplemented with 5% NGS and 0.3% Triton X-100. Caveolae and lysosomes were detected using anti-caveolin 1 and anti-LAMP1 (Lysosomal-Associated Membrane Protein 1) antibodies, respectively, made in rabbit (both from Santa Cruz, Heidelberg, Germany) and incubated overnight at 4 µg/mL in PBS. Finally, cells were incubated for 1 h with an anti-rabbit IgG made in goat coupled to fluorescein (Vector Labconsult) at 20 µg/mL in phosphate buffer pH 7.8 supplemented with 0.5% BSA. Cells were mounted with Vectashield mounting medium with DAPI.

HepaRG cells = assay: Colocalization of LRPep2 with caveolae and lysosomes, HepaRG; assay type: cell-based; conditions: p < 0.001
Method: as §1

N18(H) cells = assay: Colocalization of LRPep2 with caveolae and lysosomes, N18(H); assay type: cell-based; conditions: differentiated N18(H) cells
Method: Experiments on N18(H) cells were performed after differentiation. Cells were immobilized on the appropriate support, and the differentiation was induced the second day, using medium containing 0.2% FBS for 48 h.
as §1

1321N1 cells = assay: Colocalization of LRPep2 with caveolae and lysosomes, 1321N1; assay type: cell-based
Method: as §1

Question: For HPWCCGLRLDLR [LRPep2], which “Endocytosis of the peptide compared with the other peptide” value [1] is on record?
Answer: Its value is “more effective than that of peptide LRPep1”.

Question: And the Endocytosis pathway (ACBRI376 cells; ACBRI376, caveolin-1 fluorescence increased (p < 0.05), LAMP1 decreased (p < 0.05))?
Answer: Its Endocytosis pathway is “endocytosed by the non-degradation pathway involving caveolae”.

Question: And the “Mander's coefficient (M), colocalization of rhodamine with caveolin-1” value (ACBRI376 cells; ACBRI376 cells, LRPep2-rho 25 µM, 2 h 37 °C, Figure S4)?
Answer: The value was 82.7%.

Question: And the Endocytosis pathway (HepaRG cells)?
Answer: Its Endocytosis pathway is “significant increase of fluorescence was observed for lysosomes”.

Question: What about the Endocytosis pathway (N18(H) cells) of the same sequence?
Answer: The Endocytosis pathway was “both pathways”.

Question: What about the Endocytosis pathway (1321N1 cells) of the same sequence?
Answer: The Endocytosis pathway was “both pathways”.
